This is an account of results in article PMC12677633, “Thermosensory TRPV Heterotetramers Drive Seasonal Polyphenism: Molecular Basis of CcIav/CcNan‐PKCα‐AKH/AKHR Signaling in Pear Psyllid Morph Transition” (Advanced Science, 2025).

What all share (assay): Fluo-4 AM calcium flux in HEK293T cells
Background: Calcium flux is commonly read through the fluorescence of an indicator in the cells.

Test [1] deals with T1, CcIav/CcNan heterotetramer.
T1 construct: gene iav; full-length ORFs co-expressed in HEK293T cells from pcDNA3.1-mCherry-P2A; 2:2 heterotetramer
Type of test: cell-based, Cacopsylla chinensis. The settings on record: agonist; 2:2 CcIav/CcNan.

The test system of test [2] is T2, DcIav/DcNan heterotetramer.
T2 construct: gene iav; ORFs co-expressed in HEK293T cells; 2:2 heterotetramer
Format: cell-based, Diaphorina citri. Conditions: agonist; 2:2 molar ratio Iav/Nan.

The test system of test [3] is T3, HaIav/HaNan heterotetramer.
T3 construct: gene iav; ORFs co-expressed in HEK293T cells; 2:2 heterotetramer
Format: cell-based, Harmonia axyridis. The settings on record: agonist; 2:2 molar ratio Iav/Nan.

Test [4] addresses T4, BdIav/BdNan heterotetramer (Bactrocera dorsalis, UniProt A0A8N4L2W2+A0ABM3JT49).
T4 construct: gene LOC105228865; ORFs co-expressed in HEK293T cells; 2:2 heterotetramer
T4 sequence (A0ABM3JT49 1-1159): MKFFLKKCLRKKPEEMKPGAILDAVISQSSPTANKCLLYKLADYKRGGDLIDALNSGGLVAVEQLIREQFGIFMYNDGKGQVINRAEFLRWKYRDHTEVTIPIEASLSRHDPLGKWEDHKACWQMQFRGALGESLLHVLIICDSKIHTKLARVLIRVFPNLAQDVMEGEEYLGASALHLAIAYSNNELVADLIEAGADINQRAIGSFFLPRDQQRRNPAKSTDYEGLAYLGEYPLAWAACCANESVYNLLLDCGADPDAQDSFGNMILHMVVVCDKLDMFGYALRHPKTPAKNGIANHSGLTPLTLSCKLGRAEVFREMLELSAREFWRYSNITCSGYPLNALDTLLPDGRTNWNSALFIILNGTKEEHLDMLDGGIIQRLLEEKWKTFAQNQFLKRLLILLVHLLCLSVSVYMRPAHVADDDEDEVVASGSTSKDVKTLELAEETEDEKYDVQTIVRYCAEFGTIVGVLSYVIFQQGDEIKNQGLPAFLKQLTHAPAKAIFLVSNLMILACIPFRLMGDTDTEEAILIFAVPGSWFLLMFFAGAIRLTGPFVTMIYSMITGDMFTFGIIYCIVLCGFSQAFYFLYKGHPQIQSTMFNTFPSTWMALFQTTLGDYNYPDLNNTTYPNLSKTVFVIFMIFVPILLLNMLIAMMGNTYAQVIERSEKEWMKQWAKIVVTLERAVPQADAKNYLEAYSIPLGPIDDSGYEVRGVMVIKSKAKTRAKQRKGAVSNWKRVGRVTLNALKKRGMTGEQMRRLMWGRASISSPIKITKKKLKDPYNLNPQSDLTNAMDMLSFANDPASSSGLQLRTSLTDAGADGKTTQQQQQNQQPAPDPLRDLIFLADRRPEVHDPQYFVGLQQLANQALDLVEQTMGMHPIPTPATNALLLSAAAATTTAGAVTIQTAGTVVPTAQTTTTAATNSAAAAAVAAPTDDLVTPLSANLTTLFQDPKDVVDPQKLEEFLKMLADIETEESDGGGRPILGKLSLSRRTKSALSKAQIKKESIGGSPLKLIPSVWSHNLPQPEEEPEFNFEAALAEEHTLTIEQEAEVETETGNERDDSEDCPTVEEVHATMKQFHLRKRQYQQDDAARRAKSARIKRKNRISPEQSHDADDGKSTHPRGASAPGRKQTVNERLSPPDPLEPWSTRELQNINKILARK
T4 sequence (A0A8N4L2W2 1-846): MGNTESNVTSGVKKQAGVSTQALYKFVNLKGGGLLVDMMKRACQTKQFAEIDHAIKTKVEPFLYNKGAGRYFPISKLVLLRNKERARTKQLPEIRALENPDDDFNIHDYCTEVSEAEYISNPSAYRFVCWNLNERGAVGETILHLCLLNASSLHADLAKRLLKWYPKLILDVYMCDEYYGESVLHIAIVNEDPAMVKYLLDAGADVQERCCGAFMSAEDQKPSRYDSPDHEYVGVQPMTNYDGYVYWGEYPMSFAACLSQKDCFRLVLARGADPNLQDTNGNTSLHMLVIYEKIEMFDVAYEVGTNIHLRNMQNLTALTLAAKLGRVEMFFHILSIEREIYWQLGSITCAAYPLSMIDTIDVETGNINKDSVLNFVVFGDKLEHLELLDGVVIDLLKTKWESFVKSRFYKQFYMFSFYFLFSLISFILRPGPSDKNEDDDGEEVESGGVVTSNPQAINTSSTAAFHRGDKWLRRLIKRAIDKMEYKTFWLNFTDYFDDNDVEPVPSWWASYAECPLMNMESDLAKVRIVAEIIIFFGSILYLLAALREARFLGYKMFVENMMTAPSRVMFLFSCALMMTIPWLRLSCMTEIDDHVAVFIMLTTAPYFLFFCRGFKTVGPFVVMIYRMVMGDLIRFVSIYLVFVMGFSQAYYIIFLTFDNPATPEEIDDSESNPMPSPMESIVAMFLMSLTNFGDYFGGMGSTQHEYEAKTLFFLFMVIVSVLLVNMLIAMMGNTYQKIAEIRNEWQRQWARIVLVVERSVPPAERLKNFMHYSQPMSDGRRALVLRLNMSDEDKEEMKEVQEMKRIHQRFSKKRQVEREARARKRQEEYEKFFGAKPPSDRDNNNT
Type of test: cell-based.

As a reminder, the EC50 is the concentration needed to bring the measured effect to its halfway point. Regarding `COc1cc(CNC(=O)CCCC/C=C/C(C)C)ccc1O` [capsaicin], the EC50 in test [1] was 0.0224 µM; in test [2] it was 57.8 µM; in test [3], 24.1 µM; in test [4] it was 24.5 µM.
